Data from US20060035968A1, “Composition for preventing cancer comprising 2'-benzoyl-oxycinnamaldehyde” (Korea Research Institute of Bioscience and Biotechnology, priority 2004, published 2006).
“Also recorded” adds a separate entry of the source.

Experiments:
[1] = tested on: H-ras 12V-overexpressing mouse; assay: Splenocyte number in H-ras-transgenic mouse; assay type: in vivo; settings: 50 mg/kg i.p. once every two days for 10 weeks, Tg mouse vs control group (NTg), FIG. 3A
Method: A neonatal […] H-ras 12V-overexpressing mouse (KCTC 10318 BP) was intraperitoneally administered with 50 mg/kg of BCA and HCA (prepared by extracting the stem bark of C. cassia with organic solvents such as methanol and performing an isolation and purification process by various column chromatography methods) for ten weeks once every two days. Six months after birth, the spleen was excised from the mouse, and a single cell suspension was prepared. Red blood cells were removed from the single cell suspension using a RBC lysis solution (Sigma), and the number of splenocytes was counted under a microscope.

[2] = target: farnesyl-protein transferase (Homo sapiens, UniProt P49356); settings: in vitro; cited from earlier work
angiogenesis = settings: J. Biological Chemistry, 279(8), 6911-6920, 2004; cited from earlier work
tumor cell growth = settings: J. Biological Chemistry, 279(8), 6911-6920, 2004; cited from earlier work
[3] = tested on: H-ras 12V-overexpressing mouse; assay: Effect of BCA on incidence of liver cancer in H-ras-overexpressing mouse (liver histology); assay type: in vivo
Method: A neonatal […] H-ras 12V-overexpressing mouse (KCTC 10318 BP) was intraperitoneally administered with 50 mg/kg of BCA (prepared by reacting 2′-hydroxy-cinnamaldehyde (HCA) isolated from the stem bark of C. cassia with benzoyl chloride in the presence of triethylamine) for ten weeks once every two days. Six months after birth, the liver tissue was excised from the mouse in an aseptic state, fixed with a formaldehyde solution, and embedded in paraffin. The resulting paraffin block was sectioned into a thickness of 4 μm using a microtome (LEICA Company), and tissue sections were attached onto slides. The tissue was then stained with hematoxylin/eosin and observed under a reverse phased microscope (Model: Bx 50, Olympus Company).

splenocytes = assay: Splenocyte proliferation by [3H]-thymidine after LPS or ConA stimulation; assay type: cell-based, mouse; settings: splenocytes of treated mice stimulated with ConA, 48 hours, FIG. 3B
Method: On the other hand, 2×10^5 splenocytes were aliquotted into a 96-well plate, stimulated with a cell proliferation inducer, LPS (lipopolysaccharide) or ConA (concanavalin A), and cultured for 48 hours. 1 μCi of [^3H]-thymidine was added to each well, followed by incubation for 6 hours. Cells were harvested on a nitrocellulose membrane, and radiation activity was measured using a beta scintillation counter (Wallac, Turku, Finland) to investigate proliferation ability of splenocytes.

[4] = animal test, J. Toxicol. Pub. Health, 2003, 19, 259-266; cited from earlier work
[5] = tested on: human retinal pigment epithelial (hRPE) cells; settings: IOVS, 43(9), 3117-3124, 2002; cited from earlier work
[6] = tested on: proliferative vitreoretinopathy (PVR) model in rabbits; settings: IOVS, 43(9), 3117-3124, 2002; cited from earlier work
[7] = 50 mg/kg i.p. once every two days for ten weeks, six months after birth

SMILES | cell number in the spleen (splenocyte number) [1] | inhibition of farnesyl-protein transferase [2] | inhibition of angiogenesis (angiogenesis) | inhibition of tumor cell growth (tumor cell growth) | portion progressed to cancer in the liver ([3]; 50 mg/kg i.p. once every two days for ten weeks from 4 months old, liver at six months, vs control FIG. 1A) | number of immune cells in the liver [3, 7] | tumor progression to liver cancer [3, 7] | cell number in the spleen (splenocyte number) ([1]; listed as BSA) | T cell response (splenocyte proliferation) (splenocytes) | toxicity in vivo [4] | apoptosis in hRPE cells [5] | antiproliferative effect in PVR model [6]
O=CC=Cc1ccccc1O [HCA, 2′-hydroxycinnamaldehyde, reference compound] | increased cell number | inhibitory effects | inhibitory effects | inhibitory effects |  |  |  |  |  |  |  | 
O=C/C=C/c1ccccc1OC(=O)c1ccccc1 [BCA, 2′-benzoyloxycinnamaldehyde] | increased cell number | inhibit; also recorded: inhibitory effects | inhibitory effects | inhibitory effects | remarkably reduced | increased | inhibited | largest increase | highest T cell response | no toxicity | induces apoptosis | antiproliferative effect
